The values that follow come from patent US6797711B2, “Benzofuran derivatives and pharmaceutical compositions containing the same” (Pola Chemical Industries, Inc., priority 2000, dated 2004).

Structures are written as SMILES.

A word on the melting point: it is the temperature of the solid-liquid transition. `O=C(CC(c1ccccc1)c1ccccc1)N1CCN(C(=O)c2cc3ccccc3o2)CC1` [Compound 4, 1-(benzofuran-2-yl)carbonyl-4-(3,3-diphenylpropionyl)piperazine]: the melting point is 130.5 to 132 °C. With `O=C(/C=C/c1ccccc1)N1CCN(CC(O)c2cc3ccccc3o2)CC1` (centres unmarked) [Compound 1, 1-(2-(benzofuran-2-yl)-2-hydroxy)ethyl-4-cinnamoylpiperazine] the figure was 126.5 to 128 °C; with `O=C(CC(c1ccccc1)c1ccccc1)N1CCN(CC(O)c2cc3ccccc3o2)CC1` (centres unmarked) [Compound 3, 1-(2-(benzofuran-2-yl)-2-hydroxy)ethyl-4-(3,3-diphenylpropionyl)piperazine], 125.5 to 127.5 °C; with `O=C(CC(c1ccccc1)c1ccccc1)N1CCN(CCc2cc3ccccc3o2)CC1` [Compound 7, 1-(2-(benzofuran-2-yl)ethyl)-4-(3,3-diphenylpropionyl)piperazine], 123.3 to 124.1 °C. Then `O=C(CC(c1ccccc1)c1ccccc1)N1CCN(Cc2cc3ccccc3o2)CC1` [Compound 6, 1-(benzofuran-2-yl)methyl-4-(3,3-diphenylpropionyl)piperazine], with 120.5 to 122 °C.
